Target: T1, F508del (Homo sapiens, UniProt P13569, DEL508-508)
T1 construct: expressed in transfected cells
Test: Protocol 2: FRET membrane potential optical assay (VIPR), identification of correction compounds
Type: cell-based
Details: F508del CFTR modulator activity; compounds of Table 1; read-out: EC30
In short: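 FRET read-out (CC2-DMPE donor, DiSBAC2(3) voltage-sensitive acceptor) of membrane depolarization on VIPR II. Corrector candidates incubated 16 hrs at 37° C. with NIH3T3 cells expressing F508del; temperature correction at 27° C. as positive control; stimulation by 10 μM forskolin, 20 μM genistein, chloride-free gluconate bath.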

T1 sequence (P13569 with tags, fused parts or gaps DEL508-508): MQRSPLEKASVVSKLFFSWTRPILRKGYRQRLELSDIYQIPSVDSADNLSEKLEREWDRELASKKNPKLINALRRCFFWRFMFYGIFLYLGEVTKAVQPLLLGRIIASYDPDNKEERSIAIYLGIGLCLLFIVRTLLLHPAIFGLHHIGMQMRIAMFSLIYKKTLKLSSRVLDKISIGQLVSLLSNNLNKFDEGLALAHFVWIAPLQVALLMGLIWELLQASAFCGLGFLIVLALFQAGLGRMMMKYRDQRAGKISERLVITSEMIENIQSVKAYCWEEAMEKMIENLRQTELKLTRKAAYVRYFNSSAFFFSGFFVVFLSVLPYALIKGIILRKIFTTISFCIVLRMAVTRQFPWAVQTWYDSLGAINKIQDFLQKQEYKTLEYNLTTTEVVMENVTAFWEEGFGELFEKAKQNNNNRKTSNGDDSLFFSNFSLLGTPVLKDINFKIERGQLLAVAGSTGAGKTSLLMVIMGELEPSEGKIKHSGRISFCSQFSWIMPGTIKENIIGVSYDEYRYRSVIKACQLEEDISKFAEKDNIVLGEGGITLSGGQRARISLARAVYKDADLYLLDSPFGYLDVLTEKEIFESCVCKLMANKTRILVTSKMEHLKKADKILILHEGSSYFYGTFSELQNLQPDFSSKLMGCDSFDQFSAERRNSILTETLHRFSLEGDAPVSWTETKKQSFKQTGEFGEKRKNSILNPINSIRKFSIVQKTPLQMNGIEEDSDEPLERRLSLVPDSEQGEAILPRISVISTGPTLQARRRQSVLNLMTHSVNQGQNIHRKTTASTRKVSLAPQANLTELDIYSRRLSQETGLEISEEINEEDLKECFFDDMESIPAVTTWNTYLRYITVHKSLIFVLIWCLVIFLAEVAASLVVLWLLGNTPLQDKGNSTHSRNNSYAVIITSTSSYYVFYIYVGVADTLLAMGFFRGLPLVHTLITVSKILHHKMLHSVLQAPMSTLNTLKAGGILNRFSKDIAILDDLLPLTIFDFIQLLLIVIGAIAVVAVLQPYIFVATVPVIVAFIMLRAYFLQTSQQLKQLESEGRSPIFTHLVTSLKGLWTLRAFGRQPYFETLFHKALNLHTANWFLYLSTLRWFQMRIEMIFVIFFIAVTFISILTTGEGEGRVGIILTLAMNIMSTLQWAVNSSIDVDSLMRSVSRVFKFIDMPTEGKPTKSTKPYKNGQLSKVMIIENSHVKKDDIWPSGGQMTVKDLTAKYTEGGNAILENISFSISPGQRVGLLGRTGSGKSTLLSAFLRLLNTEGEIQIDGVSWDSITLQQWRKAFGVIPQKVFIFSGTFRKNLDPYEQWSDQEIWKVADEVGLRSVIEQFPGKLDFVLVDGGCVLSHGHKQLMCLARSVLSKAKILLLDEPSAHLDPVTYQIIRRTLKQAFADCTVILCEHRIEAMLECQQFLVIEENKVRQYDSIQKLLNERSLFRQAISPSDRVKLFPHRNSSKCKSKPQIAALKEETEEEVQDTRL

How did the EC30 turn out when CC(Oc1nc(N2C[C@@H](C)CC2(C)C)c(C(=O)NS(=O)(=O)c2cccc(N)n2)cc1F)c1ccncc1 (stereo partly drawn) [Compound 2212, N-[(6-amino-2-pyridyl)sulfonyl]-5-fluoro-6-[1-(4-pyridyl)ethoxy]-2-[(4S)-2,2,4-trimethylpyrrolidin-1-yl]pyridine-3-carboxamide] was run?
The EC30 was 3 to 10 µM.

With C[C@@H]1CN(c2nc(-c3cc(F)ccc3F)ccc2C(=O)NS(=O)(=O)N2CC[C@H](N)C2)C(C)(C)C1 [Compound 2489, N-[(3S)-3-aminopyrrolidin-1-yl]sulfonyl-6-(2,5-difluorophenyl)-2-[(4S)-2,2,4-trimethylpyrrolidin-1-yl]pyridine-3-carboxamide] as the compound, how does the EC30 read?
Its EC30 is 3 to 10 µM.

CC1CN(c2ncccc2C(=O)NS(=O)(=O)c2cccc(N3CC[C@@H](NC(=O)OC(C)(C)C)C3)n2)C(C)(C)C1 (stereo partly drawn) [Compound 2537, tert-butyl N-[(3R)-1-[6-[[2-(2,2,4-trimethylpyrrolidin-1-yl)pyridine-3-carbonyl]sulfamoyl]-2-pyridyl]pyrrolidin-3-yl]carbamate] was tested. Which EC30 did it give?
Its EC30 is 3 to 10 µM.

How did the EC30 turn out when Cc1cccc(-c2ccc(C(=O)NS(=O)(=O)c3cccc(N)n3)c(N3C[C@@H](C)CC3(C)C)n2)c1C [Compound 2287, N-[(6-amino-2-pyridyl)sulfonyl]-6-(2,3-dimethylphenyl)-2-[(4S)-2,2,4-trimethylpyrrolidin-1-yl]pyridine-3-carboxamide] was run?
Its EC30 is under 3 µM.

With CC1CN(c2ncccc2C(=O)NS(=O)(=O)c2cccc(Nc3ccccc3C(F)(F)F)n2)C(C)(C)C1 (stereo not shown) [Compound 2397, N—[[6-[2-(trifluoromethyl)anilino]-2-pyridyl]sulfonyl]-2-(2,2,4-trimethylpyrrolidin-1-yl)pyridine-3-carboxamide] as the compound, how does the EC30 read?
The EC30 was under 3 µM.

Which EC30 does the source give for CCOc1nn(-c2ccc(C(=O)NS(=O)(=O)c3cccnc3N)c(N3C[C@@H](C)CC3(C)C)n2)cc1C [Compound 2248, N-[(2-amino-3-pyridyl)sulfonyl]-6-(3-ethoxy-4-methyl-pyrazol-1-yl)-2-[(4S)-2,2,4-trimethylpyrrolidin-1-yl]pyridine-3-carboxamide] here?
The EC30 was under 3 µM.

With COc1cccc(OC)c1Oc1cccc(S(=O)(=O)NC(=O)c2cccnc2N2CC(C)CC2(C)C)n1 (stereo not shown) [Compound 2309, N—[[6-(2,6-dimethoxyphenoxy)-2-pyridyl]sulfonyl]-2-(2,2,4-trimethylpyrrolidin-1-yl)pyridine-3-carboxamide] as the compound, how does the EC30 read?
The EC30 was under 3 µM.

How did the EC30 turn out when C/C=C/COc1cccc(S(=O)(=O)NC(=O)c2ccc(C(C)(C)C)nc2N2CC(C)CC2(C)C)n1 (stereo not shown) [Compound 2715] was run?
The EC30 was under 3 µM.

With COc1cc(F)cc(-c2cnc(N3CC(C)CC3(C)C)c(C(=O)NS(=O)(=O)c3cccc(N)n3)c2)c1 (stereo not shown) [Compound 2431, N-[(6-amino-2-pyridyl)sulfonyl]-5-(3-fluoro-5-methoxy-phenyl)-2-(2,2,4-trimethylpyrrolidin-1-yl)pyridine-3-carboxamide] as the compound, how does the EC30 read?
Its EC30 is under 3 µM.

With Cc1cccc(-c2ccc(C(=O)NS(=O)(=O)c3cccnc3N)c(N3C[C@@H](C)CC3(C)C)n2)c1O [Compound 2592, N-[(2-amino-3-pyridyl)sulfonyl]-6-(2-hydroxy-3-methyl-phenyl)-2-[(4S)-2,2,4-trimethylpyrrolidin-1-yl]pyridine-3-carboxamide] as the compound, how does the EC30 read?
Its EC30 is under 3 µM.

With CC1CN(c2ncccc2C(=O)NS(=O)(=O)c2cccc(NCCN(C)C(=O)OC(C)(C)C)n2)C(C)(C)C1 (stereo not shown) [Compound 2400, tert-butyl N-methyl-N—[2-[[6-[[2-(2,2,4-trimethylpyrrolidin-1-yl)pyridine-3-carbonyl]sulfamoyl]-2-pyridyl]amino]ethyl]carbamate] as the compound, how does the EC30 read?
Its EC30 is 3 to 10 µM.

With CC1CN(c2ncccc2C(=O)NS(=O)(=O)c2cccc(O[C@H](C)Cc3ccccc3)n2)C(C)(C)C1 (stereo partly drawn) [Compound 2470, N—[[6-[(1R)-1-methyl-2-phenyl-ethoxy]-2-pyridyl]sulfonyl]-2-(2,2,4-trimethylpyrrolidin-1-yl)pyridine-3-carboxamide] as the compound, how does the EC30 read?
Its EC30 is under 3 µM.

Which EC30 does the source give for CC1CN(c2ncccc2C(=O)NS(=O)(=O)c2cccc(OCC3CCC3)n2)C(C)(C)C1 (stereo not shown) [Compound 2188, N—[[6-(cyclobutylmethoxy)-2-pyridyl]sulfonyl]-2-(2,2,4-trimethylpyrrolidin-1-yl)pyridine-3-carboxamide] here?
Its EC30 is under 3 µM.

COC(=O)c1ccc(Nc2cccc(S(=O)(=O)NC(=O)c3cccnc3N3CC(C)CC3(C)C)n2)nc1 (stereo not shown) [Compound 2140, methyl 6-[[6-[[2-(2,2,4-trimethylpyrrolidin-1-yl)pyridine-3-carbonyl]sulfamoyl]-2-pyridyl]amino]pyridine-3-carboxylate] was tested. Which EC30 did it give?
The EC30 was 3 to 10 µM.

With CCOc1ccc(F)cc1-c1ccc(C(=O)NS(=O)(=O)c2cccnc2N)c(N2C[C@@H](C)CC2(C)C)n1 [Compound 2071, N-[(2-amino-3-pyridyl)sulfonyl]-6-(2-ethoxy-5-fluoro-phenyl)-2-[(4S)-2,2,4-trimethylpyrrolidin-1-yl]pyridine-3-carboxamide] as the compound, how does the EC30 read?
Its EC30 is under 3 µM.

CC1CN(c2ncccc2C(=O)NS(=O)(=O)c2cccc(OCc3ccccc3)n2)C(C)(C)C1 (stereo not shown) [Compound 2619, N-[(6-benzyloxy-2-pyridyl)sulfonyl]-2-(2,2,4-trimethylpyrrolidin-1-yl)pyridine-3-carboxamide] was tested. Which EC30 did it give?
Its EC30 is under 3 µM.

Same assay, conditions: Table 3; compounds of Table 1 as modulators of CFTR activity; protocol not stated

For CC(C)COc1cc(F)cc(-c2ccc(C(=O)NS(=O)(=O)c3cccc(N)n3)c(N3[C@H](C)CC[C@H]3C)n2)c1 [Compound 751, N-[(6-amino-2-pyridyl)sulfonyl]-2-[(2R,5R)-2,5-dimethylpyrrolidin-1-yl]-6-(3-fluoro-5-isobutoxy-phenyl)pyridine-3-carboxamide], which EC30 is on record?
Its EC30 is “+++ (“+++” means <3 uM)”.

How did the EC30 turn out when CCOc1ccc(-c2cc(C(=O)NS(=O)(=O)c3ccccc3)n(Cc3c(C)cccc3C)n2)cc1 [Compound 29, N-(benzenesulfonyl)-2-[(2,6-dimethylphenyl)methyl]-5-(4-ethoxyphenyl)pyrazole-3-carboxamide] was run?
Its EC30 is “+++ (“+++” means <3 uM)”.

For CC(C)COc1cc(F)cc(-c2ccc(C(=O)NS(=O)(=O)c3cccc(N)n3)c(N3CC4CCC3C4)n2)c1 (stereo not shown) [Compound 680, N-[(6-amino-2-pyridyl)sulfonyl]-2-(3-azabicyclo[2.2.1]heptan-3-yl)-6-(3-fluoro-5-isobutoxy-phenyl)pyridine-3-carboxamide], which EC30 is on record?
Its EC30 is “+++ (“+++” means <3 uM)”.

With COc1ccccc1-c1cc(C(=O)NS(=O)(=O)c2cccc(N)c2)n(C(C)c2ccccc2)n1 (stereo not shown) [Compound 40, N-(3-aminophenyl)sulfonyl-5-(2-methoxyphenyl)-2-(1-phenylethyl)pyrazole-3-carboxamide] as the compound, how does the EC30 read?
The EC30 was “+++ (“+++” means <3 uM)”.

With COc1ncccc1S(=O)(=O)NC(=O)c1ccc(-c2ccc(C)cc2)nc1-c1ccc(C)cc1 [Compound 524, N-[(2-methoxy-3-pyridyl)sulfonyl]-2,6-bis(p-tolyl)pyridine-3-carboxamide] as the compound, how does the EC30 read?
Its EC30 is “++ (“++” means between 3 uM and 10 uM)”.

Cc1cc(C)c(Oc2ccc(C(C)(C)C)nc2C(=O)NS(=O)(=O)c2cccc(N)c2)c(C)c1 [Compound 106, N-(3-aminophenyl)sulfonyl-6-tert-butyl-3-(2,4,6-trimethylphenoxy)pyridine-2-carboxamide] was tested. Which EC30 did it give?
The EC30 was “+++ (“+++” means <3 uM)”.

With CCOc1cc(F)cc(-c2ccc(C(=O)NS(=O)(=O)c3ccn[nH]3)c(N3[C@H](C)CC[C@@H]3C)n2)c1 [Compound 382, 2-[(2R,5S)-2,5-dimethylpyrrolidin-1-yl]-6-(3-ethoxy-5-fluoro-phenyl)-N-(1H-pyrazol-5-ylsulfonyl)pyridine-3-carboxamide] as the compound, how does the EC30 read?
Its EC30 is “+++ (“+++” means <3 uM)”.

How did the EC30 turn out when CC(C)COc1cc(F)cc(-c2ccc(C(=O)NS(=O)(=O)c3ccn[nH]3)c(N3CCC(F)CC3)n2)c1 [Compound 728, 6-(3-fluoro-5-isobutoxy-phenyl)-2-(4-fluoro-1-piperidyl)-N-(1H-pyrazol-5-ylsulfonyl)pyridine-3-carboxamide] was run?
Its EC30 is “++ (“++” means between 3 uM and 10 uM)”.

With COc1cc2cc(C(=O)NS(=O)(=O)c3ccccc3)n(Cc3c(C)cc(C)cc3C)c2cc1OC [Compound 198, N-(benzenesulfonyl)-5,6-dimethoxy-1-[(2,4,6-trimethylphenyl)methyl]indole-2-carboxamide] as the compound, how does the EC30 read?
The EC30 was “+++ (“+++” means <3 uM)”.

With CCOc1ccc(-c2ccc(C(=O)NS(=O)(=O)c3cccc(N)n3)c(Oc3c(C)cc(C)cc3C)n2)c(F)c1 [Compound 602, N-[(6-amino-2-pyridyl)sulfonyl]-6-(4-ethoxy-2-fluoro-phenyl)-2-(2,4,6-trimethylphenoxy)pyridine-3-carboxamide] as the compound, how does the EC30 read?
Its EC30 is “+++ (“+++” means <3 uM)”.

With Cc1cccc(C)c1Cn1nc(C(C)(C)C)cc1C(=O)NS(=O)(=O)c1cccs1 [Compound 77, 5-tert-butyl-2-[(2,6-dimethylphenyl)methyl]-N-(2-thienylsulfonyl)pyrazole-3-carboxamide] as the compound, how does the EC30 read?
The EC30 was “+++ (“+++” means <3 uM)”.

With CCCOc1cc(-c2ccc(C(=O)NS(=O)(=O)c3ccc[nH]c3=O)c(Oc3c(C)cc(C)cc3C)n2)ccc1Cl [Compound 72, 6-(4-chloro-3-propoxy-phenyl)-N-[(2-oxo-1H-pyridin-3-yl)sulfonyl]-2-(2,4,6-trimethylphenoxy)pyridine-3-carboxamide] as the compound, how does the EC30 read?
The EC30 was “++ (“++” means between 3 uM and 10 uM)”.

With CC(C)Oc1ccc(-c2ccc(C(=O)NS(=O)(=O)c3ccc[nH]c3=O)c(N3C[C@@H](C)CC3(C)C)n2)cn1 [Compound 497, 6-(6-isopropoxy-3-pyridyl)-N-[(2-oxo-1H-pyridin-3-yl)sulfonyl]-2-[(4S)-2,2,4-trimethylpyrrolidin-1-yl]pyridine-3-carboxamide] as the compound, how does the EC30 read?
The EC30 was “+++ (“+++” means <3 uM)”.

Which EC30 does the source give for Cc1cc(C)c(Oc2nc(C(C)(C)C)ccc2C(=O)NS(=O)(=O)c2cccc(C(=O)O)c2)c(C)c1 [Compound 205, 3-[[6-tert-butyl-2-(2,4,6-trimethylphenoxy)pyridine-3-carbonyl]sulfamoyl]benzoic acid] here?
The EC30 was “++ (“++” means between 3 uM and 10 uM)”.

With CC1CCN(c2nc3c(cc2C(=O)NS(=O)(=O)c2cccc(N)n2)CCCC3(C)C)CC1 [Compound 750, N-[(6-amino-2-pyridyl)sulfonyl]-8,8-dimethyl-2-(4-methyl-1-piperidyl)-6,7-dihydro-5H-quinoline-3-carboxamide] as the compound, how does the EC30 read?
Its EC30 is “+++ (“+++” means <3 uM)”.

Source: patent publication US10758534B2 (Vertex Pharmaceuticals Incorporated, priority 2014, dated 2020)
